Tests used:
AH44 hepatoma = AH44 hepatoma implanted intraperitoneally, single dose, survival (Experimental Example 5); assay type: in vivo, male Donryu rats; details: once, three days after implantation
Source text: A plurality of groups each consisting of six male Donryu rats (7-8 weeks old) were respectively implanted intraperitoneally with 10^6 cells of AH44 hepatoma. Three days after the implantation, each test animal was once administered orally or intraperitoneally with Y-6430.

AH272 hepatoma = assay: AH272 hepatoma, survival (Experimental Example 8); assay type: in vivo, male Donryu rats; details: once daily from third to sixth day, control 7.9 days
Protocol: A plurality of groups each consisting of six male Donryu rats (7-8 weeks old) were implanted with 2 x 10^6 cells of AH272 hepatoma. After the implantation, Y-6430 dissolved in physiological saline was administered intraperitoneally once daily within the period from the third to sixth day, and the average survival days were calculated, the result being shown in Table 9.
All the test animals were dead within 30 days.

sarcoma 180 = assay: Sarcoma 180 implanted intraperitoneally, survival (Experimental Example 9); assay type: in vivo, male ICR mice; details: once daily for seven days
Protocol: A plurality of groups each consisting of 12 male ICR mice (6-8 weeks old) were implanted intraperitoneally with 2 x 10^6 cells of sarcoma 180. After the next day to the implantation, Y-6430 was administered intraperitoneally or subcutaneously once daily for seven days.

## CCOC(=O)[C@@H](N)CSC(=O)NC.Cl [Y-6430, S-methylcarbamoyl-L-cysteine ethyl ester hydrochloride]
AH44 hepatoma; 500 mg/kg p.o.
  30-day Survivors: 0/6
  Average Survival Time: 11.2 days
AH44 hepatoma; 1,000 mg/kg i.p.
  30-day Survivors: 1/6
  Average Survival Time: 14.7 days
AH44 hepatoma; 1,000 mg/kg p.o.
  30-day Survivors: 0/6
  Average Survival Time: 10.8 days
AH272 hepatoma; 100 mg/kg/day i.p.
  Average Survival Time: 10.5 days
AH272 hepatoma; 250 mg/kg/day i.p.
  Average Survival Time: 15.0 days
Sarcoma 180; 50 mg/kg/day i.p.
  30-day Survivors: 0/12
  Average Survival Time: 25.5 days
  Number of Dead Animals: 0/12
Sarcoma 180; 50 mg/kg/day s.c.
  30-day Survivors: 0/12
  Average Survival Time: 21.9 days
  Number of Dead Animals: 0/12
Sarcoma 180; 100 mg/kg/day i.p.
  30-day Survivors: 5/12
  Average Survival Time: 27.7 days
  Number of Dead Animals: 0/12
Sarcoma 180; 100 mg/kg/day s.c.
  30-day Survivors: 0/12
  Average Survival Time: 23.0 days
  Number of Dead Animals: 0/12

From EP0139005A1, “ANTITUMOR COMPOSITION, METHOD FOR TREATING TUMOR, AND USE OF THE COMPOSITION FOR TREATING TUMOR” (Yoshitomi Pharmaceutical Industries, Ltd., priority 1982, dated 1984)
